Source: ChEMBL document CHEMBL5055661, “Cell-Based Drug Discovery: Identification and Optimization of Small Molecules that Reduce c-MYC Protein Levels in Cells” (J Med Chem, 2021)
≈ marks a conversion by molar mass, not a printed value. Calls of active or inactive are those of the source. No cut-off for these calls is given here.

How the values were obtained:
[1] = Reduction in cMyc expression in human COLO 320HSR cells incubated for 24 hrs by HTRF assay; type: functional, cell-based
[2] = Solubility by CLND assay; type: physicochemical
[3] = Distribution coefficient, logD of the compound by chromatography; type: physicochemical; conditions: octanol/water
[4] = Permeability of the compound across artificial membrane by AMP assay; type: ADME; conditions: PAMPA; read-out: permeability
COLO-320-HSR [5] = assay: Effect on MCL-1 protein level in human COLO 320HSR cells incubated for 24 hrs by Western blot analysis; type: functional, cell-based
COLO-320-HSR [6] = assay: Decrease in MYC mRNA level in human COLO 320HSR cells incubated for 6 hrs by qRT-PCR analysis; type: functional, cell-based
[7] = Decrease in nascent MYC mRNA level in human COLO 320HSR cells at 2 uM incubated for 75 mins by qRT-PCR analysis; type: functional; conditions: 1.25 h
COLO-320-HSR [8] = assay: Decrease in c-MYC protein level in human COLO 320HSR cells incubated for 24 hrs by Western blot analysis; type: functional, cell-based
[9] = Oral bioavailability in Han Wistar rat at 5.3 mg/kg by LC-MS/MS analysis; type: ADME, organism-based; conditions: in vivo
[10] = Volume of distribution at steady state in Han Wistar rat at 1.9 mg/kg, iv by LC-MS/MS analysis; type: ADME, organism-based; conditions: in vivo, read-out: Vdss
[11] = AUC (0 to t) in Han Wistar rat at 5.3 mg/kg, po by LC-MS/MS analysis; type: ADME, organism-based; set-up: dose 5.3 mg/kg, route po; conditions: in vivo
[12] = Half life in Han Wistar rat at 1.9 mg/kg, iv by LC-MS/MS analysis; type: ADME, organism-based; conditions: in vivo
[13] = Clearance in Han Wistar rat at 1.9 mg/kg, iv by LC-MS/MS analysis; type: ADME, organism-based; conditions: in vivo
[14] = Plasma protein binding in CD1 mouse at 5 mg/kg, po by LC-MS/MS analysis; type: ADME, organism-based; conditions: read-out: PPB (converted)
[15] = Oral bioavailability in Han Wistar rat at 2 mg/kg by LC-MS/MS analysis; type: ADME, organism-based; conditions: in vivo
[16] = AUC (0 to inf) in Han Wistar rat at 2 mg/kg, po by LC-MS/MS analysis; type: ADME, organism-based; set-up: time infinity, dose 2 mg/kg, route po; conditions: in vivo
[17] = Cmax in Han Wistar rat at 2 mg/kg, po by LC-MS/MS analysis; type: ADME, organism-based; set-up: dose 2 mg/kg, route po; conditions: in vivo
[18] = AUC (0 to inf) in CD1 mouse at 5 mg/kg, po by LC-MS/MS analysis; type: ADME, organism-based; set-up: time infinity, dose 5 mg/kg, route po; conditions: in vivo
[19] = Clearance in Han Wistar rat at 1 mg/kg, iv by LC-MS/MS analysis; type: ADME, organism-based; conditions: in vivo
[20] = Half life in Han Wistar rat at 1 mg/kg, iv by LC-MS/MS analysis; type: ADME, organism-based; conditions: in vivo
[21] = Volume of distribution at steady state in Han Wistar rat at 1 mg/kg, iv by LC-MS/MS analysis; type: ADME, organism-based; conditions: in vivo, read-out: Vdss
[22] = Cmax in CD1 mouse at 5 mg/kg, po by LC-MS/MS analysis; type: ADME, organism-based; set-up: dose 5 mg/kg, route po; conditions: in vivo
[23] = Plasma protein binding in Han Wistar rat at 2 mg/kg, po by LC-MS/MS analysis; type: ADME, organism-based; conditions: read-out: PPB (converted)
[24] = Oral bioavailability in CD1 mouse at 5 mg/kg by LC-MS/MS analysis; type: ADME, organism-based; conditions: in vivo
[25] = Clearance in Han Wistar rat at 0.54 mg/kg, iv by LC-MS/MS analysis; type: ADME, organism-based; conditions: in vivo
[26] = Volume of distribution at steady state in Han Wistar rat at 0.54 mg/kg, iv by LC-MS/MS analysis; type: ADME, organism-based; conditions: in vivo, read-out: Vdss
[27] = Half life in Han Wistar rat at 0.54 mg/kg, iv by LC-MS/MS analysis; type: ADME, organism-based; conditions: in vivo
[28] = Clearance in CD1 mouse at 0.51 mg/kg, iv by LC-MS/MS analysis; type: ADME, organism-based; conditions: in vivo
[29] = Half life in CD1 mouse at 0.51 mg/kg, iv by LC-MS/MS analysis; type: ADME, organism-based; conditions: in vivo
[30] = Volume of distribution at steady state in CD1 mouse at 0.51 mg/kg, iv by LC-MS/MS analysis; type: ADME, organism-based; conditions: in vivo, read-out: Vdss

SMILES	EC50 [1] [nM]	also measured
CCN(CC)c1ccc(-c2nc3cc(C(N)=O)ccc3n2CCOC(C)(C)C)cn1	158	
CCOCCn1c(-c2ccc(N3[C@@H](C)CC[C@@H]3C)nc2)nc2ccccc21	251	solubility kinetic [2]: 254 µM (≈ 92.6 µg/mL); chromatographic logD [3]: 6.4; Papp [4]: 54.5 ×10⁻⁶ cm/s
CCN(CC)c1ccc(-c2nc3ccccc3n2Cc2ccn(CC)n2)cc1	25100	
CCOCCn1c(-c2ccc(N3CCC[C@H]3C)nc2)nc2ccccc21	12600	
CCN(CC)c1ccc(-c2nc3cc(C(=O)NC)ccc3n2Cc2ccn(CC)n2)cn1	126	Activity (COLO-320-HSR [5]): inactive; Activity (COLO-320-HSR [6]): Dose-dependent effect; inhibition at 2 µM [7]: 50%; Activity (COLO-320-HSR [8]): Dose-dependent effect
CCc1ncc(Cn2c(-c3ccc(N(CC)CC)nc3)nc3ccccc32)o1	3160	
CCN(CC)c1ccc(-c2nc3ccccc3n2Cc2coc(C)n2)cn1	501	
CCc1nc(Cn2c(-c3ccc(N(CC)CC)nc3)nc3ccccc32)co1	501	
CCN(CC)c1ccc(-c2nc3cc(C)ccc3n2Cc2ccn(CC)n2)cn1	631	
CCN(CC)c1ccc(-c2nc3ccccc3n2CCc2ccn(CC)n2)cn1	25100	
CCN(CC)c1ccc(-c2nc3c(C(N)=O)cccc3n2Cc2ccn(CC)n2)cn1	2000	
COc1cccc2nc(-c3ccc(N4[C@@H](C)CC[C@@H]4C)nc3)n(C[C@@H]3CNCCO3)c12	126	bioavailability [9]: 63%; Vd [10]: 6.3 L/kg; chromatographic logD [3]: 4; AUC(0-t) [11]: 1600 ng·h/mL; half-life [12]: 306 min; clearance [13]: 35 mL/min/kg
CNC(=O)c1cc(OC)c2c(nc(-c3ccc(N4[C@@H](C)CC[C@@H]4C)nc3)n2C[C@@H]2CN(C)CCO2)c1F	63.1	fraction unbound [14]: 0.07; bioavailability [15]: 83%; AUC(0-inf) [16]: 3160 ng·h/mL; Cmax [17]: 180 ng/mL; AUC(0-inf) [18]: 784 ng·h/mL; clearance [19]: 11 mL/min/kg; half-life [20]: 258 min; Vd [21]: 2.8 L/kg; Cmax [22]: 205 ng/mL; fraction unbound [23]: 0.05; bioavailability [24]: 26%
CCOCCn1c(-c2ccc(N3CCC[C@@H]3C)nc2)nc2ccccc21	1260	
C[C@@H]1CN(C)C[C@H](Cn2c(-c3ccc(N4[C@@H](C)CC[C@@H]4C)nc3)nc3ccccc32)O1	20000	chromatographic logD [3]: 5.5
COc1cc(C(N)=O)cc2nc(-c3ccc(N4[C@@H](C)CC[C@@H]4C)nc3)n(C[C@@H]3CN(C)CCO3)c12	79.4	
CCNc1ccc(-c2nc3ccccc3n2Cc2ccn(CC)n2)cn1	39800	
CCCCn1c(-c2ccc(N(CC)CC)nc2)nc2ccccc21	12600	
CCOc1cccc2nc(-c3ccc(N(CC)CC)nc3)n(Cc3ccn(C)n3)c12	398	

SMILES	EC50 [1] [nM]	also measured
CNC(=O)c1cc(OC)c2c(c1)nc(-c1ccc(N3[C@@H](C)CC[C@@H]3C)nc1)n2C[C@@H]1CN(C)CCO1		Papp [4]: 22 ×10⁻⁶ cm/s
COc1cccc2nc(-c3ccc(N4[C@@H](C)CC[C@@H]4C)nc3)n(Cc3ccn(C)n3)c12	25.1	clearance [25]: 190 mL/min/kg; Vd [26]: 6 L/kg; half-life [27]: 60 min
CCN(CC)c1ccc(-c2nc3ccccc3n2CCOC)cn1	2510	
CCN(CC)c1ccc(-c2nc3cccc(NC)c3n2Cc2ccn(C)n2)cn1	631	
CCN(CC)c1ccc(-c2nc3ccccc3n2Cc2cccc(C)n2)cn1	2510	
COc1cc(C(N)=O)c(F)c2nc(-c3ccc(N4CCC[C@@H]4C)nc3)n(C[C@@H]3CN(C)CCO3)c12	63.1	fraction unbound [14]: 0.03; clearance [28]: 24 mL/min/kg; bioavailability [15]: 100%; AUC(0-inf) [16]: 4300 ng·h/mL; Cmax [17]: 500 ng/mL; AUC(0-inf) [18]: 1240 ng·h/mL; clearance [19]: 14 mL/min/kg; half-life [29]: 33 min; half-life [20]: 384 min; Vd [21]: 2.5 L/kg; Vd [30]: 0.88 L/kg; Cmax [22]: 380 ng/mL; fraction unbound [23]: 0.04; bioavailability [24]: 43%
CCN(CC)c1ccc(-c2nc3c(C)cccc3n2Cc2ccn(CC)n2)cn1	316	
CCc1nc(Cn2c(-c3ccc(N(CC)CC)nc3)nc3ccccc32)cs1	1580	
CCN(CC)c1ccc(-c2nc3ccccc3n2Cc2cc[nH]n2)cn1	2510	
CNC(=O)c1cc(OC)c2c(c1)nc(-c1ccc(N3[C@@H](C)CC[C@@H]3C)nc1)n2C[C@@H]1CNCCO1		Papp [4]: 1.3 ×10⁻⁶ cm/s
CCN(CC)c1ccc(-c2nc3ccccc3n2Cc2ccn(CC)n2)cn1	631	
CCCN(CC)c1ccc(-c2nc3ccccc3n2Cc2ccn(CC)n2)cn1	1580	
CCNC(=O)c1cc(OC)c2c(c1)nc(-c1ccc(N3[C@@H](C)CC[C@@H]3C)nc1)n2C[C@@H]1CNCCO1		Papp [4]: 1.9 ×10⁻⁶ cm/s
CCN(CC)c1ccc(-c2nc3c(C#N)cccc3n2Cc2ccn(CC)n2)cn1	1000	
CCN(CC)c1ccc(-c2nc3cc(C(=O)N(C)C)ccc3n2CCOC(C)(C)C)cn1	3980	
CCN(CC)c1ccc(-c2nc3cccc(OC)c3n2Cc2ccn(C)n2)cn1	79.4	
COc1cccc2nc(-c3ccc(N4[C@@H](C)CC[C@@H]4C)nc3)n(C[C@@H]3CNC[C@H](C)O3)c12	158	chromatographic logD [3]: 4.4
CCN(CC)c1ccc(-c2nc3cccc(C)c3n2Cc2ccn(C)n2)cn1	1000	

Now from value to compound, other results behind:

EC50 [1] [nM]	SMILES	also measured
3980	CCN(C)c1ccc(-c2nc3ccccc3n2Cc2ccn(CC)n2)cn1	
158	CCN(CC)c1ccc(-c2nc3cc(C(=O)NCC4CC4)ccc3n2CCOC(C)(C)C)cn1	
398	CCOCCn1c(-c2ccc(N(CC)CC)nc2)nc2ccccc21	
251	CCN(CC)c1ccc(-c2nc3ccccc3n2Cc2ccn(C)n2)cn1	
5010	CCn1ccc(Cn2c(-c3ccc(N4CCCC4)nc3)nc3ccccc32)n1	
1000	CCN(CC)c1ccc(-c2nc3cc(C#N)ccc3n2Cc2ccn(CC)n2)cn1	
25.1	CCOCCn1c(-c2ccc(N3[C@@H](C)CC[C@@H]3C)nc2)nc2cccc(OC)c21	
200	CCN(CC)c1ccc(-c2nc3c(Cl)cccc3n2Cc2ccn(CC)n2)cn1	
7940	CCN(CC)c1ccc(-c2cc3ccccc3n2Cc2ccn(CC)n2)cn1	
2000	CCN(CC)c1ccc(-c2nc3cccc(C#N)c3n2Cc2ccn(C)n2)cn1	
794	CCN(CC)c1ccc(-c2nc3cc(OC)ccc3n2Cc2ccn(CC)n2)cn1	
100	Cc1cccc2nc(-c3ccc(N4[C@@H](C)CC[C@@H]4C)nc3)n(Cc3ccn(C)n3)c12	solubility kinetic [2]: 309 µM (≈ 124 µg/mL); chromatographic logD [3]: 7; Papp [4]: 64 ×10⁻⁶ cm/s
79.4	COc1cccc2nc(-c3ccc(N4[C@@H](C)CC[C@@H]4C)nc3)n(C[C@@H]3CN(C)C[C@H](C)O3)c12	chromatographic logD [3]: 6.8
1580	CCn1ccc(Cn2c(-c3ccc(N4CCCC4C)nc3)nc3ccccc32)n1 (stereo not given)	
316	CCN(CC)c1ccc(-c2nc3ccccc3n2CCOC(C)(C)C)cn1	
200	CCN(CC)c1ccc(-c2nc3cc(C(=O)NCCO)ccc3n2CCOC(C)(C)C)cn1	
251	CCN(CC)c1ccc(-c2nc3ccccc3n2CCOC(C)C)cn1	
1580	C[C@H]1CN(C)C[C@@H](Cn2c(-c3ccc(N4[C@@H](C)CC[C@@H]4C)nc3)nc3ccccc32)O1	chromatographic logD [3]: 5.6
2000	CCOCCn1c(-c2ccc(N3[C@H](C)CC[C@@H]3C)nc2)nc2ccccc21	
20	COc1cc(C(N)=O)c(F)c2nc(-c3ccc(N4[C@@H](C)CC[C@@H]4C)nc3)n(C[C@@H]3CN(C)CCO3)c12	
